Measured values as given in patent EP4782448A1, “SUBSTITUTED PYRIDOTRIAZOLE COMPOUND, AND PREPARATION METHOD THEREFOR AND USE THEREOF” (Origiant Pharmaceutical Co., Ltd., priority 2023, dated 2025).
Where two headings read alike, the source gives them in different places.

Assays:
RIPK1 Kinase = target: T1, RIPK1 Kinase (Homo sapiens, UniProt Q13546); assay: biochemical
T1 construct: purchased Eurofins (Kinase Profiler service)
T1 sequence (Q13546 1-671): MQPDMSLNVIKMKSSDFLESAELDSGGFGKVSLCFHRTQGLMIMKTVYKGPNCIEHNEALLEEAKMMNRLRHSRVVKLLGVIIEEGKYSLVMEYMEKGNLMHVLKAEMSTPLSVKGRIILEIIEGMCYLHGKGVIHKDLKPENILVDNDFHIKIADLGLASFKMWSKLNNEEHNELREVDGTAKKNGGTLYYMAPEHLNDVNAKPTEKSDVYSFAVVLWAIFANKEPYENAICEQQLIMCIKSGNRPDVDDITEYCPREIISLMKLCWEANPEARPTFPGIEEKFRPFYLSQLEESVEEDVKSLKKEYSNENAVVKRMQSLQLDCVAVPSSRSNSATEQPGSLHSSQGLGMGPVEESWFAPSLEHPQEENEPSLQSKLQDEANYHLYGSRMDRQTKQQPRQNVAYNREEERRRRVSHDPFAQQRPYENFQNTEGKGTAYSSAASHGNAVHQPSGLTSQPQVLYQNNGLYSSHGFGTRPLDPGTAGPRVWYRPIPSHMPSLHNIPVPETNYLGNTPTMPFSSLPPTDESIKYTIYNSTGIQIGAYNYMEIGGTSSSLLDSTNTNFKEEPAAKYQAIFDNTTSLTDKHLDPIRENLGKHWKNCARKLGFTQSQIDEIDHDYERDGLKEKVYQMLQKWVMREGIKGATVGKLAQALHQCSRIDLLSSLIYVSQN
Method: This assay was completed using the Kinase Profiler service provided by Eurofins. The experimental method was as follows: The small molecule compound to be tested (0.001-10 µM) and the protein kinase to be tested were incubated with a buffer containing a substrate, 10 mM magnesium acetate, and [γ-^33P-ATP]. The reaction was initiated by adding a Mg\ATPmix. After incubation at room temperature for a period of time, a 3% phosphate solution was added to the buffer to terminate the reaction. Subsequently, 10 µL of the reaction mixture was quantitatively pipetted and dropped onto P30 filter paper. The paper was washed three times with 75 mM phosphate solution and once with methanol. After drying, scintillation fluid was added for scinticounting. The inhibitory activity of the compound was expressed as the half-maximal inhibitory concentration (IC50). The IC50 values were derived by fitting the inhibition rates corresponding to the respective concentration gradients.

HT-29 cells = assay: In vitro assay for protection of HT-29 cells from necroptosis (TNFα/Smac mimetic/Z-VAD-FMK induction, CCK8 readout); type: cell-based; details: read-out: HT-29 (EC50)
MLK2/3 kinase = assay: In vitro MLK2/3 kinase assay (ADP-Glo method, ICE Bioscience); type: biochemical
Method: The in vitro MLK2/3 kinase assay utilized the ADP-Glo method provided by ICE Bioscience INC. A drug screening system based on MLK2/3 kinase was employed to evaluate the inhibiting ability of small molecule compounds against kinase activity. The experimental method is as follows: ADP-Glo Method • 1. 2 × ATP/substrate solution and 2 × kinase solution were prepared using kinase reaction buffer. • 2. 40 nL of the compound diluent was transferred into a 384-well plate using an Echo 655. After centrifugation, 2 µL of 2 × kinase solution was added to the 384-well plate, centrifuged at 1000 rpm for 1 min, and incubated at 25°C for 10 min; • 3.2 µL of 2 × substrate and ATP solution was added into the 384-well plate, centrifuged at 1000 rpm for 1 min, and incubated at 25°C for 60 min. • 4. 4 µL of ADP-Glo was transferred to a 384-well plate, centrifuged at 1000 rpm for 1 min, and incubated at 25°C for 40 min. • 5. 8 µL of test solution was transferred to a 384-well plate, centrifuged at 1000 rpm for 1 min, and incubated at 25°C for 40 min. • 6. The luminescence signal was read using a multifunctional microplate reader. • 7. Data Analysis
The IC50 (half inhibitory concentration) of a compound was obtained using the following non-linear fitting formula: Y = Bottom + (Top−Bottom)/(1+10^(∧)((LogIC50−X)*HillSlope)) [formula] • X: Compound concentration log value • Y: Compound inhibition rate (% inh)

[1] = compound 0.001-10 µM, read-out: RIPK1(IC50)
[2] = TNFα/Smac mimetic/Z-VAD-FMK for 24 h, inhibition of necroptosis

Compound | IC50 (RIPK1 Kinase) | EC50 (HT-29 cells; [2]) | other results
Cn1cc(C(=O)N2CC(F)CC2c2ccc(F)cc2)c2cc(-c3ccn4nc(NC(=O)C5CC5)nc4c3)ccc21 (stereo not drawn) [Compound 156] | 10 to 100 nM |  | 
C[C@H](NC(=O)c1cn(C)c2ccc(-c3ccn4nc(NC(=O)CN(C)C)nc4c3)cc12)c1ccc(F)cc1 [Compound 40] | 10 to 100 nM |  | 
COCCNCC(=O)Nc1nc2cc(-c3ccc4c(c3)c(C(=O)N[C@@H](C)c3ccc(F)cc3)cn4C)ccn2n1 [Compound 68] | 10 to 100 nM |  | 
C[C@H](NC(=O)c1cn(C)c2ccc(-c3ccn4nc(NC(=O)CN5C6CC7CC(C6)C(O)C5C7)nc4c3)cc12)c1ccc(F)cc1 (stereo partly drawn) [Compound 59] |  | < 1 nM | IC50 (RIPK1 Kinase; [1]): 10 to 100 nM
C[C@H](NC(=O)c1cn(C)c2ccc(-c3ccn4nc(NC(=O)CN5CCOCC5)nc4c3)cc12)c1ccc(F)cc1 [Compound 75] | 1 to 10 nM |  | IC50 (MLK2/3 kinase): 10 to 100 nM
Cn1cc(C(=O)N[C@H](c2ccc(F)cc2)C(F)F)c2cc(-c3ccn4nc(NC(=O)C5CC5)nc4c3)ccc21 [Compound 161] | 1 to 10 nM |  | 
C[C@H](NC(=O)c1cn(C)c2ccc(-c3ccn4nc(NC(=O)[C@@H]5CCC(=O)N5)nc4c3)cc12)c1ccc(F)cc1 [Compound 14] | 10 to 100 nM |  | 
C[C@H](NC(=O)c1nn(C)c2ccc(-c3ccn4nc(NC(=O)CN5CCOCC5)nc4c3)cc12)c1ccc(F)cc1 [Compound 196] | 10 to 100 nM |  | 
CC(c1ccc(F)cc1)n1cnc(-c2cn(C)c3ccc(-c4ccn5nc(NC(=O)C6CC6)nc5c4)cc23)n1 (stereo not drawn) [Compound 210] |  | 100 to 1000 nM | IC50 (RIPK1 Kinase; [1]): 1000 to 10000 nM
C[C@H](NC(=O)c1cn(C)c2ccc(-c3ccn4nc(NC(=O)CN5C[C@H]6C[C@@H]5CO6)nc4c3)cc12)c1ccc(F)cc1 [Compound 39] | 10 to 100 nM |  | 
Cn1cc(C(=O)N[C@H]2CCc3cc(C#N)ccc32)c2cc(-c3ccn4nc(NC(=O)C5CC5)nc4c3)ccc21 [Compound 130] | 10 to 100 nM |  | 
C[C@H](NC(=O)c1cn(C)c2ccc(-c3ccn4nc(NC(=O)CN5CCC(N6CCOCC6)CC5)nc4c3)cc12)c1ccc(F)cc1 [Compound 38] | 10 to 100 nM |  | 
C[C@H](NC(=O)c1cn(C)c2ccc(-c3ccn4nc(NC(=O)CN5CCN(C)CC5)nc4c3)cc12)c1ccc(F)cc1 [Compound 51] | 10 to 100 nM |  | 
CC(=O)Nc1nc2cc(-c3ccc4c(c3)c(C(=O)N[C@H]3CCCc5cc(F)ccc53)cn4C)ccn2n1 [Compound 138] |  |  | IC50 (RIPK1 Kinase; [1]): 10 to 100 nM
C[C@H](NC(=O)c1cn(C)c2ccc(-c3ccn4nc(NC(=O)C(=O)N5CCOCC5)nc4c3)cc12)c1ccc(F)cc1 [Compound 9] | 10 to 100 nM |  | 
CC(C(=O)Nc1nn(C)c2ccc(-c3ccn4nc(NC(=O)C5CC5)nc4c3)cc12)c1ccc(F)cc1 (stereo not drawn) [Compound 182] | 100 to 1000 nM |  | 
C[C@H](NC(=O)c1cn(C)c2ccc(-c3ccn4nc(NC(=O)CN5CCOC[C@@H]5C)nc4c3)cc12)c1ccc(F)cc1 [Compound 60] | 10 to 100 nM |  | 
C[C@@H]1CN(CC(=O)Nc2nc3cc(-c4ccc5c(c4)c(C(=O)N[C@@H](C)c4ccc(F)cc4)cn5C)ccn3n2)C[C@H](C)O1 [Compound 46] | 10 to 100 nM |  | 
C[C@H](NC(=O)c1cn(C)c2ccc(-c3ccn4nc(NC(=O)C5CCOC5)nc4c3)cc12)c1ccc(F)cc1 (stereo partly drawn) [Compound 106] | 10 to 100 nM |  | 
C[C@H](NC(=O)c1cn(C)c2ccc(-c3ccn4nc(NC(=O)CN5CC(C)(C#N)C5)nc4c3)cc12)c1ccc(F)cc1 [Compound 29] | 10 to 100 nM |  | 
C[C@@H](c1ccc(F)cc1)N(C)C(=O)c1cn(C)c2ccc(-c3ccn4nc(NC(=O)C5CC5)nc4c3)cc12 [Compound 175] | 10 to 100 nM |  | EC50 (HT-29 cells; Homo sapiens, HT-29, 24 h): < 1 nM
CC(=O)Nc1nc2cc(-c3ccc4c(c3)c(C(=O)NC3CCc5cc(F)ccc53)cn4C)ccn2n1 (single isomer, unassigned) [Compound 127] | 100 to 1000 nM |  | EC50 (HT-29 cells; Homo sapiens, HT-29, 24 h): 1000 to 10000 nM

Compound | IC50 (RIPK1 Kinase) | EC50 (HT-29 cells; [2]) | other results
C[C@H](NC(=O)c1cn(C)c2ccc(-c3ccn4nc(NC(=O)CN5CC(F)(F)C5)nc4c3)cc12)c1ccc(F)cc1 [Compound 42] | 10 to 100 nM |  | 
C[C@H](NC(=O)c1cn(C)c2ccc(-c3ccn4nc(NC(=O)CN5CC(O)CC5=O)nc4c3)cc12)c1ccc(F)cc1 (single isomer, unassigned) [Compound 3] | 10 to 100 nM |  | EC50 (HT-29 cells; Homo sapiens, HT-29, 24 h): 10 to 100 nM
C[C@H](NC(=O)c1cn(C)c2ccc(-c3ccn4nc(NC(=O)CN5CC6CCC(C5)O6)nc4c3)cc12)c1ccc(F)cc1 [Compound 71] | 10 to 100 nM |  | 
C[C@H](NC(=O)c1cn(C)c2ccc(-c3ccn4nc(NC(=O)CN(C)CCO)nc4c3)cc12)c1ccc(F)cc1 [Compound 74] | 10 to 100 nM |  | IC50 (MLK2/3 kinase): 10 to 100 nM
CC(=O)Nc1nc2cc(-c3ccc4c(c3)c(C(=O)N[C@H]3CCc5ccc(F)cc53)cn4C)ccn2n1 [Compound 124] | 10 to 100 nM |  | EC50 (HT-29 cells; Homo sapiens, HT-29, 24 h): 1 to 10 nM
C[C@H](NC(=O)c1cn(C)c2ccc(-c3ccn4nc(NC(=O)CN5CCC6(CC5)OCCO6)nc4c3)cc12)c1ccc(F)cc1 [Compound 27] | 10 to 100 nM |  | 
Cn1cc(C(=O)Nc2nc3cc(-c4ccc5c(c4)c(C(=O)N[C@H]4CCc6ccc(F)cc64)cn5C)ccn3n2)cn1 [Compound 122] | 100 to 1000 nM |  | 
C[C@H](NC(=O)c1cn(C)c2ccc(-c3ccn4nc(NC(=O)CN5CCOC(C)(C)C5)nc4c3)cc12)c1ccc(F)cc1 [Compound 18] | 10 to 100 nM |  | 
C[C@H](NC(=O)c1cn(C)c2ccc(-c3ccn4nc(NC(=O)CN5CCC(O)CC5)nc4c3)cc12)c1ccc(F)cc1 [Compound 6] | 10 to 100 nM |  | 
C[C@H](NC(=O)c1cn(C)c2ccc(-c3ccn4nc(NC(=O)CN5CCC(O)(O)CC5)nc4c3)cc12)c1ccc(F)cc1 [Compound 5] |  | < 1 nM | 
Cn1cc(C(=O)N[C@H]2CCc3ccc(F)cc32)c2cc(-c3ccn4nc(NC(=O)[C@H]5CCCO5)nc4c3)ccc21 [Compound 121] | 10 to 100 nM |  | 
C[C@H](NC(=O)c1cn(C)c2ccc(-c3ccn4nc(NC(=O)CN(C)C)nc4c3)cc12)c1ccc(Cl)cc1 [Compound 78] |  | < 1 nM | 
Cn1cc(C(=O)Nc2nc3cc(-c4ccc5c(c4)c(C(=O)N4N=CCC4c4ccc(F)cc4)cn5C)ccn3n2)cn1 (stereo not drawn) [Compound 171] |  | 1 to 10 nM | 
Cn1cc(C(=O)N[C@H]2CCCc3cc(F)ccc32)c2cc(-c3ccn4nc(NC(=O)[C@H]5CCCO5)nc4c3)ccc21 [Compound 137] |  | 10 to 100 nM | 
C[C@H](NC(=O)c1cn(C)c2ccc(-c3ccn4nc(NC(=O)CN5CCOC[C@H]5C)nc4c3)cc12)c1ccc(F)cc1 [Compound 72] |  | < 1 nM | 
C[C@H](NC(=O)c1cn(C)c2ccc(-c3ccn4nc(NC(=O)c5ccnc(F)c5)nc4c3)cc12)c1ccc(F)cc1 [Compound 115] |  | < 1 nM | 
Cn1cc(C(=O)N[C@@H](CF)c2ccc(F)cc2)c2cc(-c3ccn4nc(NCC5CC5)nc4c3)ccc21 [Compound 108] |  | < 1 nM | 
C[C@H](NC(=O)c1cn(C)c2ccc(-c3ccn4nc(NC(=O)CN5CC(C#N)C5)nc4c3)cc12)c1ccc(F)cc1 [Compound 34] |  | < 1 nM | 
COC(C)C(=O)Nc1nc2cc(-c3ccc4c(c3)c(-c3nncn3C(C)c3ccc(F)cc3)cn4C)ccn2n1 (stereo not drawn) [Compound 216] |  | 10 to 100 nM | 
C[C@H](NC(=O)c1cn(C)c2ccc(-c3ccn4nc(NC(=O)CN5CC6CC5CO6)nc4c3)cc12)c1ccc(Cl)cc1 (stereo partly drawn) [Compound 79] |  | < 1 nM | 
C[C@H](NC(=O)c1cn(C)c2ccc(-c3ccn4nc(NC(=O)CN5CCCOCC5)nc4c3)cc12)c1ccc(F)cc1 [Compound 30] |  | < 1 nM | 
